Measurements as given in patent publication US20230286968A1, “ARYLOXAZOLO SPIRAL RING DERIVATIVES FOR THE TREATMENT AND PROPHYLAXIS OF HEPATITIS B VIRUS INFECTION” (Hoffmann-La Roche Inc., priority 2020, published 2023).

Tests used:
HBsAg = assay: PHH natural infection assay, HBsAg (alphalisa); assay type: cell-based, HBV; details: Hepatitis B virus, Hepatocyte, read-out: HBsAg IC50, HBV-infected primary human hepatocytes, supernatant, alphalisa
Method in brief: (§1)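 Cryopreserved PHH plated 24 h, infected with HBV at 200 GE/cell plus 4% PEG8000 for 24 h, then sandwich-cultured 72 h with 0.25 mg/mL matrix gel. Compounds at varied concentrations applied twice at 72-h intervals. Supernatant HBsAg and HBeAg measured by AlphaLISA with specific antibodies.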

HBeAg = assay: PHH natural infection assay, HBeAg (alphalisa); assay type: cell-based, HBV; details: Hepatitis B virus, Hepatocyte, read-out: HBeAg IC50, HBV-infected primary human hepatocytes, supernatant, alphalisa
Method in brief: as §1

[1] = Cytotoxicity in PHH natural infection assay (Cell Counting Kit-8); assay type: cell-based; details: HBV-infected primary human hepatocytes, CCK8
Method in brief: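 HBV-infected primary human hepatocytes (200 GE/cell, 4% PEG8000, 24 h), sandwich-cultured 72 h, then given compound-containing medium twice at 72 h intervals. Cytotoxicity read by CCK-8 at end of treatment.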

| Compound | IC50 (HBsAg) [µM] | IC50 (HBeAg) [µM] | CC50 at 144 h [1] [µM] |
| --- | --- | --- | --- |
| O=C(NC1CC2(C1)CC(c1nc3cc(Cl)ccc3o1)C2)c1ccnc(S(=O)(=O)CC2CC2)c1 (stereo not drawn) [Example 100, N-[6-(5-chloro-1,3-benzoxazol-2-yl)spiro[3.3]heptan-2-yl]-2-(cyclopropylmethylsulfonyl)pyridine-4-carboxamide] | 0.59 | 0.44 | > 10 |
| O=C(NC1CC2(C1)CC(c1nc3cc(Cl)ccc3o1)C2)C1CC(C(F)(F)F)C1 (stereo not drawn) [Example 29, N-[6-(5-chloro-1,3-benzoxazol-2-yl)spiro[3.3]heptan-2-yl]-3-(trifluoromethyl)cyclobutanecarboxamide] | 4.67 | 3.82 | > 100 |
| CN1CC(CC(=O)NC2CC3(C2)CC(c2nc4cc(Cl)ccc4o2)C3)CC1=O (stereo not drawn) [Example 35, N-[6-(5-chloro-1,3-benzoxazol-2-yl)spiro[3.3]heptan-2-yl]-2-(1-methyl-5-oxo-pyrrolidin-3-yl)acetamide] | 9.93 | 7.28 | > 10 |
| CN1CC(C(=O)NC2CC3(C2)CC(c2nc4cc(Cl)ccc4o2)C3)CC1=O (stereo not drawn) [Example 30, N-[6-(5-chloro-1,3-benzoxazol-2-yl)spiro[3.3]heptan-2-yl]-1-methyl-5-oxo-pyrrolidine-3-carboxamide] | 3.89 | 2.65 | > 100 |
| O=C(NC1CC2(C1)CC(c1nc3ncccc3o1)C2)C1CCS(=O)(=O)C1 (stereo not drawn) [Example 41, N-(6-oxazolo[4,5-b]pyridin-2-ylspiro[3.3]heptan-2-yl)-1,1-dioxo-thiolane-3-carboxamide] | 5.28 | 2.32 | > 100 |
